Test systems include A498; A549; ACHN; BT-549; CCRF-CEM; DU-145; EKVX; HOP-62; KM12; LOX IMVI; MDA-MB-231; MDA-MB-435; NCI-H460; PC-3; RPMI-8226; SF-268; SF-539; SK-MEL-5; SK-OV-3; SNB-19.
What all share (assay): inhibition of tumour cell growth, NCI panel, 48 h

The structures appear in SMILES notation.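 Five concentrations, 48 hours, 96-well plates. GI50 = concentration required for 50% inhibition of growth.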 Calls of active or inactive are those of the source. No stated cut-off is given here; in the data, active = GI50 up to about 1.1 µM and inactive = higher.

Experimental findings from ChEMBL document CHEMBL1201862, “PubChem BioAssay data set” (2004) are described below.

As to `OC1(c2ccc3ccccc3c2)c2c(c3ccccc3c3ccccc23)C2=NCCN21` (stereo not given), the GI50 in the assay on A498 is 12.1 µM (inactive); with A549, 7.1 µM (inactive); in the assay with ACHN, 8.22 µM (inactive); in the assay with BT-549, 14.7 µM (inactive); in the assay with CCRF-CEM, 4.25 µM (inactive); in the assay on DU-145 it was 16.9 µM (inactive). Besides, the GI50 is 5.51 µM (inactive) with EKVX; 9.33 µM (inactive) with HOP-62; 2.32 µM (inactive) in the assay with KM12; 2.28 µM (inactive) in the assay with LOX IMVI; 10.1 µM (inactive) in the assay with MDA-MB-231; 2.17 µM (inactive) with MDA-MB-435. The GI50 in the assay on NCI-H460 is 4.3 µM (inactive); in the assay on PC-3, 4.54 µM (inactive); in the assay on RPMI-8226, 2.52 µM (inactive); in the assay on SF-268 it was 5.79 µM (inactive); with SF-539 it was 5.45 µM (inactive); in the assay on SK-MEL-5, 17 µM (inactive). The GI50 in the assay on SK-OV-3 was 6.68 µM (inactive); with SNB-19, 12.9 µM (inactive).

Take `O=[N+]([O-])c1ccc2ncccc2c1CCc1c([N+](=O)[O-])ccc2ncccc12`: the GI50 with A498, with A549, in the assay with ACHN, in the assay on BT-549, in the assay with CCRF-CEM and in the assay on DU-145 was > 100 µM (inactive) in each case. The GI50 in the assay with EKVX, in the assay with HOP-62, in the assay on KM12, in the assay on LOX IMVI, with MDA-MB-231 and in the assay on MDA-MB-435 was > 100 µM (inactive) each time. The GI50 with NCI-H460, in the assay on PC-3, in the assay on RPMI-8226, in the assay with SF-268, in the assay on SF-539 and with SK-MEL-5 was > 100 µM (inactive) in each case. Also, the GI50 in the assay on SK-OV-3 and with SNB-19 was > 100 µM (inactive) each time.

Turning to `COc1cc2c(c(OC)c1OC)-c1ccc(SC)c(=O)cc1C(NC(=O)c1ccccc1)CC2` (stereo not given), the GI50 in the assay on A498 is < 0.01 µM (active); in the assay on A549, < 0.01 µM (active); in the assay on ACHN, < 0.01 µM (active); in the assay on BT-549 it was 15.6 µM (inactive); with CCRF-CEM, < 0.01 µM (active); in the assay with DU-145, < 0.01 µM (active). The GI50 is 21.2 µM (inactive) in the assay on EKVX; < 0.01 µM (active) with HOP-62; < 0.01 µM (active) in the assay on KM12; < 0.01 µM (active) in the assay on LOX IMVI; < 0.01 µM (active) in the assay on MDA-MB-231; < 0.01 µM (active) with MDA-MB-435. The GI50 is < 0.01 µM (active) in the assay with NCI-H460; < 0.01 µM (active) in the assay with PC-3; < 0.01 µM (active) in the assay with RPMI-8226; < 0.01 µM (active) in the assay on SF-268; 0.0118 µM (active) in the assay with SF-539; < 0.01 µM (active) in the assay on SK-MEL-5. Further, the results for the GI50 in the assay on SK-OV-3 and with SNB-19 were 0.027 µM (active) and < 0.01 µM (active), respectively.

In the case of `CC#CC(=O)SCCNC(=O)CC`, the GI50 is > 10 µM (inactive) in the assay with A498; > 10 µM (inactive) with A549; > 10 µM (inactive) in the assay with ACHN; 3.81 µM (inactive) in the assay with BT-549; 3.05 µM (inactive) in the assay with CCRF-CEM; > 10 µM (inactive) in the assay with DU-145. In addition, the GI50 in the assay on EKVX is > 10 µM (inactive); with HOP-62, > 10 µM (inactive); in the assay with KM12, > 10 µM (inactive); with LOX IMVI, 3.31 µM (inactive); with MDA-MB-231, > 10 µM (inactive); in the assay on MDA-MB-435, 7.24 µM (inactive). Moreover, the GI50 in the assay with NCI-H460 was > 10 µM (inactive); in the assay on PC-3, > 10 µM (inactive); in the assay on RPMI-8226, > 5.15 µM (inactive); with SF-268, > 10 µM (inactive); with SF-539 it was 9.02 µM (inactive); with SK-MEL-5, 8.39 µM (inactive). For the same compound, the GI50 in the assay with SK-OV-3 and in the assay with SNB-19 was > 10 µM (inactive) each time.

On to `C[C@H](CCC(=O)O[C@@H]1CC[C@@]2(C)C(CC[C@H]3[C@@H]4CC[C@H]([C@H](C)CCc5nc6ccccc6[nH]5)[C@@]4(C)CC[C@@H]32)C1)[C@H]1CC[C@H]2[C@@H]3CCC4C[C@H](O)CC[C@]4(C)[C@H]3CC[C@]12C` (stereo not given in full), for which the GI50 in the assay with A498 was > 87.5 µM (inactive); in the assay on A549 it was > 100 µM (inactive); in the assay with ACHN it was 4.13 µM (inactive); in the assay with BT-549, > 100 µM (inactive); with CCRF-CEM, > 100 µM (inactive); in the assay on DU-145, > 100 µM (inactive). In addition, the GI50 with EKVX was > 100 µM (inactive); in the assay with HOP-62, 25.7 µM (inactive); in the assay on KM12, > 100 µM (inactive); with LOX IMVI, 3.95 µM (inactive); in the assay with MDA-MB-231, > 67.9 µM (inactive); in the assay on MDA-MB-435, > 100 µM (inactive). Besides, the GI50 is 0.518 µM (active) in the assay on NCI-H460; > 100 µM (inactive) with PC-3; > 100 µM (inactive) with RPMI-8226; 5.38 µM (inactive) in the assay with SF-268; > 100 µM (inactive) in the assay on SF-539; > 100 µM (inactive) in the assay on SK-MEL-5. Further, the GI50 in the assay with SK-OV-3 is > 81.5 µM (inactive); in the assay with SNB-19 it was 5.48 µM (inactive).

For `CC1(C)CCCCCC(O)C(O)CCC(C)(C)C1=O` (stereo not given), the GI50 in the assay on A498, with A549, in the assay on ACHN, with BT-549, with CCRF-CEM and with DU-145 was > 100 µM (inactive) throughout. Besides, the GI50 with EKVX, in the assay with HOP-62, in the assay on KM12, in the assay with LOX IMVI, with MDA-MB-231 and with MDA-MB-435 was > 100 µM (inactive) throughout. Besides, the GI50 with NCI-H460, with PC-3, in the assay on RPMI-8226, in the assay on SF-268, with SF-539 and with SK-MEL-5 was > 100 µM (inactive) throughout. Further, the GI50 in the assay with SK-OV-3 and in the assay with SNB-19 was > 100 µM (inactive) in each case.

Turning to `O=C(CCc1ccccc1)On1c(-c2ccccc2)nc2ccccc2c1=S`, the GI50 in the assay with A498 is 65.8 µM (inactive); in the assay on A549 it was 3.65 µM (inactive); with ACHN, 5.69 µM (inactive); in the assay on BT-549 it was 14.5 µM (inactive); with CCRF-CEM, 1.77 µM (inactive); in the assay with DU-145, 9.71 µM (inactive). Also, the GI50 with EKVX was 6.78 µM (inactive); in the assay with HOP-62, 3.66 µM (inactive); with KM12, 3.87 µM (inactive); with LOX IMVI it was 0.456 µM (active); in the assay on MDA-MB-231, 51.5 µM (inactive); in the assay on MDA-MB-435 it was 8.18 µM (inactive). In addition, the GI50 was 1.35 µM (inactive) in the assay with NCI-H460; 4.73 µM (inactive) in the assay on PC-3; 7.28 µM (inactive) with RPMI-8226; 3.07 µM (inactive) with SF-268; 3.92 µM (inactive) in the assay with SF-539; 4.47 µM (inactive) in the assay on SK-MEL-5. Besides, the GI50 in the assay on SK-OV-3 is 6.84 µM (inactive); in the assay on SNB-19, 14.8 µM (inactive).

Consider `O=C(NCCc1ccccn1)c1ccc2cc(C(=O)N3CC(CCl)c4ccc([N+](=O)[O-])cc43)[nH]c2c1` (stereo not given), for which the GI50 in the assay on A498 was > 57.7 µM (inactive); in the assay on A549, > 72.9 µM (inactive); in the assay with ACHN it was 36.6 µM (inactive); in the assay on BT-549, > 100 µM (inactive); in the assay on CCRF-CEM, > 100 µM (inactive); with DU-145 it was > 52.4 µM (inactive). Moreover, the GI50 was 47.4 µM (inactive) with EKVX; 13.2 µM (inactive) with HOP-62; > 100 µM (inactive) in the assay on KM12; > 100 µM (inactive) with LOX IMVI; > 33.1 µM (inactive) in the assay on MDA-MB-231; > 100 µM (inactive) in the assay with MDA-MB-435. Also, the GI50 is 22.7 µM (inactive) in the assay with NCI-H460; 44.6 µM (inactive) in the assay with PC-3; > 100 µM (inactive) in the assay on RPMI-8226; 7.1 µM (inactive) in the assay on SF-268; > 43.4 µM (inactive) with SF-539; > 61.5 µM (inactive) in the assay on SK-MEL-5. For the same compound, the values for the GI50 in the assay on SK-OV-3 and with SNB-19 were 10.6 µM (inactive) and 12.1 µM (inactive), respectively.

With `CC(C)=CCCC(C)C1=C(O)C(=O)C(C)=CC1=O` (stereo not given), the GI50 in the assay on A498 is 18.7 µM (inactive); in the assay on A549, 45.5 µM (inactive); in the assay with ACHN it was 1.88 µM (inactive); in the assay with BT-549, 14.6 µM (inactive); with CCRF-CEM, 0.614 µM (active); in the assay with DU-145, 17.6 µM (inactive). The GI50 in the assay on EKVX was 5.94 µM (inactive); in the assay on HOP-62 it was 18.9 µM (inactive); in the assay on KM12 it was 18.3 µM (inactive); with LOX IMVI, 3.66 µM (inactive); with MDA-MB-231 it was 2.98 µM (inactive); in the assay with MDA-MB-435, 16.7 µM (inactive). Also, the GI50 with NCI-H460 is 27.7 µM (inactive); in the assay on PC-3, 17.4 µM (inactive); with RPMI-8226 it was 0.838 µM (active); in the assay on SF-268, 20.2 µM (inactive); in the assay on SF-539, 19.6 µM (inactive); in the assay with SK-MEL-5, 11.6 µM (inactive). For the same compound, the GI50 in the assay with SK-OV-3 was 28.1 µM (inactive); in the assay with SNB-19 it was 38.1 µM (inactive).

With `C=C1CC[C@@]2(C)[C@@H]([C@@H]1C)[C@H]1CC[C@@H]3[C@@]4(C)CC[C@H](O)C(C)(C)[C@@H]4CC[C@@]3(C)[C@]1(C)C[C@@H]2O`, the GI50 with A498 is 2.16 µM (inactive); in the assay with A549 it was 2.05 µM (inactive); with ACHN, 2.11 µM (inactive); in the assay on BT-549 it was 10 µM (inactive); in the assay on CCRF-CEM, 5.83 µM (inactive); in the assay on DU-145, 4.57 µM (inactive). Further, the GI50 in the assay on EKVX was 3 µM (inactive); in the assay on HOP-62, 2.24 µM (inactive); with KM12, 3.65 µM (inactive); with LOX IMVI, 1.99 µM (inactive); in the assay with MDA-MB-231, 1.96 µM (inactive); in the assay on MDA-MB-435, 4.22 µM (inactive). In addition, the GI50 with NCI-H460 is 2.11 µM (inactive); with PC-3, 2.86 µM (inactive); with RPMI-8226 it was > 100 µM (inactive); in the assay with SF-268, 2.28 µM (inactive); with SF-539 it was 2.45 µM (inactive); in the assay with SK-MEL-5 it was 5.16 µM (inactive). Besides, the results for the GI50 in the assay on SK-OV-3 and in the assay on SNB-19 were 3.79 µM (inactive) and 2.32 µM (inactive), respectively.
